Measured values: publication PMC6838762 (Biophysical Journal, 2019)

Biological target: T1, FeuA (Bacillus subtilis, UniProt P40409, Q131C)
T1 sequence (P40409 21-317 Q131C): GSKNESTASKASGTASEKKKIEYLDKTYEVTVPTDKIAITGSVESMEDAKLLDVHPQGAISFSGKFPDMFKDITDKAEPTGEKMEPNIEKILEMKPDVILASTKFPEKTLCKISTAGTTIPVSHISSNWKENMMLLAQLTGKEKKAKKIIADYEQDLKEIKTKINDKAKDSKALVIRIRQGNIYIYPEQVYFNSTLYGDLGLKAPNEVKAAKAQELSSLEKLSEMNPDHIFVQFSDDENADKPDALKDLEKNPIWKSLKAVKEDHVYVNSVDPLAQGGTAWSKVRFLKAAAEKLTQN
Type: binding

Substance: ferri-bacillibactin [FeBB]
- Kd: 20 ± 3 nM
